In US20060173183A1, “Multicyclic bis-amide MMP inhibitors” (Alantos Pharmaceuticals, Inc.,, priority 2004, published 2006) one finds IC50 data, which are given here for 10 molecules.

pIC50: −log10 of the molar value.

The assay addresses MMP-13 (Homo sapiens, UniProt P45452). Put plainly: Assay for determining MMP-13 inhibition (fluorogenic substrate). The format is biochemical. The note with it: Table 1, Summary of MMP-13 Activity for Compounds of Formula I; bounds only. Here is the method:
The MMP-13 inhibiting activity of the multicyclic bis-amide MMP-13 inhibiting compounds of the present invention may be measured using any suitable assay known in the art. A standard in vitro assay for MMP-13 inhibiting activity is described in Example 3000.
Assay for Determining MMP-13 Inhibition
The typical assay for MMP-13 activity is carried out in assay buffer comprised of 50 mM Tris, pH 7.5, 150 mM NaCl, 5 mM CaCl2 and 0.05% Brij-35. Different concentrations of tested compounds are prepared in assay buffer in 50 μL aliquots. 10 μL of 40 nM stock solution of MMP-13 enzyme is added to the compound solution. The mixture of enzyme and compound in assay buffer is thoroughly mixed and incubated for 20 minutes at room temperature. Upon the completion of incubation, the assay is started by addition of 40 μL of 12.5 μM stock solution of MMP-13 fluorogenic substrate (Calbiochem Cat. No. 444235). The time-dependent increase in fluorescence is measured at the 325 nm excitation and 393 nm emission by automatic plate multireader. The IC50 values are calculated from the initial reaction rates. Selectivity assays were run in a similar manner using MMP-1, MMP-14 and TACE.
What is called pIC50 is the IC50 on a negative log10 scale, so that one unit is a factor of ten. In turn, `Cc1cc(CNC(=O)c2cc(C(=O)NC3CCc4cc(-c5nnn[nH]5)ccc43)ncn2)ccc1F` (stereo not shown) [Ex. 1] showed a pIC50 below 8.30.

`Cc1cc(CNC(=O)c2cc(C(=O)NC3CCCc4cc(-c5nnn[nH]5)ccc43)ncn2)ccc1F` (stereo not shown) [Ex. 2301] gave a pIC50 below 8.30. The figure for `Cc1cc(CNC(=O)c2cc(C(=O)N[C@H]3CCc4cc(-c5nnn[nH]5)ccc43)ncn2)ccc1F` [Ex. 2303] is below 8.30; for `COc1cccc(CNC(=O)c2cc(C(=O)N[C@H]3CCc4cc(-c5nnn[nH]5)ccc43)ncn2)c1` [Ex. 2308] it is below 8.30; for `Cc1c(-c2nnn[nH]2)ccc2c1CC[C@@H]2NC(=O)c1cc(C(=O)NCc2ccc3c(c2)CN(c2c(N)c(=O)c2=O)CC3)ncn1` [Ex. 2328] it is above 8.30. The figure for `COc1cccc(CNC(=O)c2cc(C(=O)N[C@H]3CCc4cc(-c5noc(=O)[nH]5)ccc43)ncn2)c1` [Ex. 2407] is above 8.30; for `Cc1cc(CNC(=O)c2cc(C(=O)N[C@H]3CCc4c3ccc(C(=O)O)c4C)ncn2)ccc1F` [Ex. 2522] it is above 8.30. `Cc1c(C(=O)O)ccc2c1CC[C@@H]2NC(=O)c1cc(C(=O)NCc2ccc3c(c2)CN(c2c(N)c(=O)c2=O)CC3)ncn1` [Ex. 2539]: the pIC50 was above 8.30. The figure for `COc1cc(CNC(=O)c2cc(C(=O)N[C@H]3CCc4c3ccc(C(=O)O)c4C)ncn2)ccc1F` [Ex. 2562] is above 8.30; for `Cc1cc(CNC(=O)c2cc(C(=O)N[C@H]3CCc4cc(C(=O)O)ccc43)nc(N)n2)ccc1F` [Ex. 2702] it is above 8.30.
